Results: patent publication US20120129763A1, “NOVEL SEMI-SYNTHETIC GLYCOPEPTIDES AS ANTIBACTERIAL AGENTS” (BIOMARIN PHARMACEUTICAL INC., priority 2007, published 2012)
Converted amounts (≈) assume the structure as drawn.

Tests used:
Format in all cases: cell-based
Settings in all cases: clinical isolate, Mueller-Hinton broth
[1] = tested on: Streptococcus pyogenes 712 (penicillin sensitive); experiment: Broth microdilution MIC, SPYO 712
Method: (§1) Antibacterial activity in vitro is investigated by broth microdilution method in Meuller-Hinton broth as recommended by NCCLS. All strains tested are clinical isolates either sensitive or resistant to natural glycopeptides. MIC values were determined using the CLSI-recommended broth microdilution procedure (Clinical and Laboratory Standards Institute, Methods for Dilution Antimicrobial Susceptibility Tests for Bacteria That Grow Aerobically; Approved Standard-Seventh Edition). Automated liquid handlers (Multidrop 384, Labsystems, Helsinki, Finland; Biomek 2000 and Multimek 96, Beckman Coulter, Fullerton Calif.) were used to conduct serial dilutions and liquid transfers.

[2] = tested on: Enterococcus faecium 750 (vancomycin sensitive); experiment: Broth microdilution MIC, EFCM 750
Method: as §1

[3] = tested on: Streptococcus pneumoniae 1195 (penicillin sensitive); experiment: Broth microdilution MIC, SPNE 1195
Method: as §1

[4] = tested on: Staphylococcus epidermidis 835 (MSSE); experiment: Broth microdilution MIC, SE 835; set-up: unit not given beside the values
Method: as §1

[5] = tested on: Enterococcus faecium 752 (VRE); experiment: Broth microdilution MIC, EFCM 752
Method: as §1

[6] = tested on: Enterococcus faecalis 848 (VRE); experiment: Broth microdilution MIC, EFC 848
Method: as §1

[7] = tested on: Staphylococcus aureus 757 (MRSA); experiment: Broth microdilution MIC, SA 757
Method: as §1

[8] = tested on: Enterococcus faecalis 101 (vancomycin sensitive); experiment: Broth microdilution MIC, EFC 101
Method: as §1

[9] = tested on: Staphylococcus epidermidis 831 (MRSE); experiment: Broth microdilution MIC, SE 831; set-up: unit not given beside the values
Method: as §1

[10] = tested on: Staphylococcus aureus 2012 (VISA); experiment: Broth microdilution MIC, SA 2012
Method: as §1

[11] = tested on: Staphylococcus aureus 100 (MSSA); experiment: Broth microdilution MIC, SA 100
Method: as §1

Row | Compound | MIC, S PYO 712 [1] [mg/L] | MIC, E FCM 750 [2] [mg/L] | MIC, S PNE 1195 [3] [mg/L] | MIC, SE 835 [4] | MIC, E FCM 752 [5] [mg/L] | MIC, E FC 848 [6] [mg/L] | MIC, SA 757 [7] [mg/L] | MIC, E FC 101 [8] [mg/L] | MIC, SE 831 [9] | MIC, SA 2012 [10] [mg/L] | MIC, SA 100 [11] [mg/L]
1 | CCCCCCCCNC(=O)NC(=O)C[C@@H]1NC(=O)[C@H](NC(=O)[C@@H](CC(C)C)NC)[C@H](O)c2ccc(c(Cl)c2)Oc2cc3cc(c2OC2OC(CO)C(O)C(O)C2O)Oc2ccc(cc2Cl)[C@@H](O)[C@H]2NC(=O)[C@H](NC(=O)[C@@H]3NC1=O)c1ccc(O)c(c1)-c1c(O)cc(O)cc1[C@@H](C(=O)NC1C3CC4CC(C3)CC1C4)NC2=O (stereo partly drawn) [Compound 29] | 0.12 (≈ 0.0753 µM) | 0.5 (≈ 0.314 µM) | 0.12 (≈ 0.0753 µM) | 1 | 2 (≈ 1.25 µM) | 2 (≈ 1.25 µM) | 1 (≈ 0.627 µM) | 1 (≈ 0.627 µM) | 0.5 | 1 (≈ 0.627 µM) | 2 (≈ 1.25 µM)
2 | CN[C@H](CC(C)C)C(=O)N[C@H]1C(=O)N[C@@H](CC(=O)NC(=O)N[C@@H](C)c2ccccc2)C(=O)N[C@H]2C(=O)N[C@@H]3C(=O)N[C@H](C(=O)N[C@H](C(=O)NC4C5CC6CC(C5)CC4C6)c4cc(O)cc(O)c4-c4cc3ccc4O)[C@H](O)c3ccc(c(Cl)c3)Oc3cc2cc(c3OC2O[C@H](COC(=O)N[C@@H](C)c3ccccc3)[C@@H](O)[C@H](O)[C@H]2O)Oc2ccc(cc2Cl)[C@H]1O (stereo partly drawn) [Compound 75] | 0.25 (≈ 0.144 µM) | 0.5 (≈ 0.288 µM) | 1 (≈ 0.577 µM) | 2 | 2 (≈ 1.15 µM) | 2 (≈ 1.15 µM) | 2 (≈ 1.15 µM) | 2 (≈ 1.15 µM) | 1 | 4 (≈ 2.31 µM) | 4 (≈ 2.31 µM)
3 | CN[C@H](CC(C)C)C(=O)N[C@H]1C(=O)N[C@@H](CC(=O)NC(=O)N[C@@H](C)c2ccccc2)C(=O)N[C@H]2C(=O)N[C@@H]3C(=O)N[C@H](C(=O)N[C@H](C(=O)NC4C5CC6CC(C5)CC4C6)c4cc(O)cc(O)c4-c4cc3ccc4O)[C@H](O)c3ccc(c(Cl)c3)Oc3cc2cc(c3OC2O[C@H](CO)[C@@H](O)[C@H](O)[C@H]2O)Oc2ccc(cc2Cl)[C@H]1O (stereo partly drawn) [Compound 76] | 0.06 (≈ 0.0378 µM) | 0.5 (≈ 0.315 µM) | 0.25 (≈ 0.158 µM) | 1 | 8 (≈ 5.04 µM) | 8 (≈ 5.04 µM) | 2 (≈ 1.26 µM) | 2 (≈ 1.26 µM) | 1 | 4 (≈ 2.52 µM) | 2 (≈ 1.26 µM)
